Several values for one entry are separate records, joined by “and”; a condition that tells them apart may be missing. Identical values can stand only once. Like-named read-outs stand apart in the source and are kept apart here.

For assay [1], the system named is mouse embryonic fibroblasts (MEF). Nature of the assay: lipid ROS (BODIPY 581/591 C11, flow cytometry). The class given is cell-based. The conditions noted are these: low micromolar concentrations, 24 h. As for the experimental part:
To detect lipid peroxidation upon treatment with CH004, HepG2 cells or mouse embryonic fibroblasts (MEF) were seeded in 12-well plates with ~ 1.8 × 10^5 cells per well for 24 h. After treatment with the inhibitor for another 24 h, cells were stained with BODIPY® 581/591 C11 (Invitrogen) for 1 h at a final concentration of 2 μM at 37 °C[57]. The cells were then resuspended in an appropriate amount of PBS after being washed once with PBS. Lipid peroxidation, i.e., lipid ROS, was analyzed by detection of the fluorescence using an LSR Fortessa flow cytometer. The data were recorded at 530/30 nm (green fluorescent) and 670/30 nm (red fluorescent) wavelengths after excitation at 488 nm. A minimum of 20000 events was used for the analysis. All the experiments were independently repeated twice in triplicate.
Figure S15. The mode of actions for CH004 in cells. […] Indicated HEK293T stable cell lines were treated with CH004 at a concentration of 10 µM for 24 h, and the cell viability was then measured using the CellTiter96® Aqueous One Solution Cell Proliferation Assay (Promega). Means ± SDs (n=3). (B-C) CH004 or erastin triggers ferroptosis in mouse embryonic fibroblasts (MEF). […] The cell viability was accordingly quantified using the CellTiter96® Aqueous One Solution Cell Proliferation Assay (Promega) and the results were shown as percentages of DMSO (control, 100%). […]
For orientation: Flow cytometry measures light scatter and fluorescence of single cells or particles in a stream.

The target of the next assay is T1, hCBS (Homo sapiens, UniProt P35520).
T1 construct: GST (N); made in house; host or cells: E. coli BL21
T1 sequence (P35520 1-551): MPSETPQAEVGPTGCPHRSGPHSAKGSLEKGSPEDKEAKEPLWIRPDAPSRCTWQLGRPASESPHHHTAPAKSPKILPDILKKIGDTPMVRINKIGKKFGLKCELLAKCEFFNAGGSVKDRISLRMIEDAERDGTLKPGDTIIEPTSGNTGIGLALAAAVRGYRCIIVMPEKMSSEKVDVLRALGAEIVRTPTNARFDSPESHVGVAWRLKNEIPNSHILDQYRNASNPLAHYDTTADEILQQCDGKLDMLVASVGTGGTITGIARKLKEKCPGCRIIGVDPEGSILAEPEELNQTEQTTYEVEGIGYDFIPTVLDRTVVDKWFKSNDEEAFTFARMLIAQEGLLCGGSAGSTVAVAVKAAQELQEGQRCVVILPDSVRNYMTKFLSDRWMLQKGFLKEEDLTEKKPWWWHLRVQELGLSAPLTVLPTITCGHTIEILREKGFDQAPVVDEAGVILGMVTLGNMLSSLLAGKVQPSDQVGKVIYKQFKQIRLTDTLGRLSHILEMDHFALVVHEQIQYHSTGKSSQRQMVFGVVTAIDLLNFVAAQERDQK
The assay is described as follows: enzyme kinetics of hCBS inhibition. In kind it is biochemical. On the procedure: Figure S2. The mode of action of CH004 in inhibiting hCBS. […] After incubation with DMSO or CH004 at 10 μM for 40 min, hCBS (20 μM) was diluted 200-fold and the activity was measured according to the standard assay protocol (Materials and Methods). The data are presented as percentages of control (CTR; DMSO, 100%) and shown as means ± SDs (n = 5). The effects of 0.05 and 10 μM CH004 on hCBS (100 nM) without pre-incubation were defined as positive control (PC) and negative control (NC), respectively. (B) Inhibition of hCBS by CH004 as a function of PLP concentration with Cys (20 mM) together with Hcys (10 mM) as substrates (non-competitive inhibition constant αKi=15.2 ± 4.9 μM). (C) Inhibition of hCBS by CH004 as a function of Cys concentration in the presence of 100 μM PLP and the absence of Hcys (mixed inhibition constant αKi=26.4 ± 8 μM). (D) Inhibition of hCBS by CH004 as a function of Hcys concentration in the presence of 20 mM Cys and 100 μM PLP (mixed inhibition constant αKi’=7.2 ± 1.6 μM). Each point in the Lineweaver-Burk plots represents the means of triplicate. The αKi or αKi’ values were calculated by using the non-linear fitting method for enzyme kinetics in GraphPad Prism 5. (E) Surface Plasmon Resonance assays analysis of the binding of CH004 to hCBS. Solutions with various concentrations of CH004 (0.097–12.5 µM) were injected into the chamber with a hCBS-coated sensor chip. The change of response units is shown over time. Dissociation constants for CH004 (KD) were calculated by using Biacore evaluation software (Materials and Methods).

`Cn1nc(Cc2ccccc2)nc2c(=O)n(C)c(=O)nc1-2` [CH004, 3-benzyl-1,6-dimethylpyrimido[5,4-e][1,2,4]triazine-5,7(1H,6H)-dione]: the “induction of ferroptosis (lipid ROS) in MEF” value in assay [1] is on record as approximately 2 fold. For the same compound, the “mode of inhibition toward Cys and Hcys” value on hCBS is given as “mixed-type inhibition”. Moreover, the “mode of inhibition toward PLP” value at hCBS is given as “noncompetitive inhibition”. Further, the Ki at hCBS (100 μM PLP, absence of Hcys, read-out: αKi toward Cys (mixed inhibition constant)) is ~26.4 µM and 26.4 µM; at hCBS (20 mM Cys, 100 μM PLP, read-out: αKi’ toward Hcys (mixed inhibition constant)), ~7.2 µM and 7.2 µM; at hCBS (Cys 20 mM and Hcys 10 mM as substrates, read-out: αKi toward PLP (non-competitive inhibition constant)), ~15.2 µM and 15.2 µM.

(Values after PMC6158189, “A pharmacological probe identifies cystathionine β-synthase as a new negative regulator for ferroptosis” (Cell Death & Disease, 2018).)
